Measurements reported in ChEMBL document CHEMBL1201862, “PubChem BioAssay data set” (2004).
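1) Cells in 96-well plates. 2) Compound, 48 h, 5 concentrations. 3) Linear interpolation between surrounding doses. 4) Unreached endpoint = highest concentration. The concentration for 50% growth inhibition is given as GI50.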 Calls of active or inactive are those of the source. Cut-off read from the data, not from the text of the source: active = GI50 up to about 1.1 µM and inactive = higher.

Legend:
Test in all cases: inhibition of tumour cell growth, NCI panel, 48 h
[1] = tested on: CCRF-CEM
[2] = tested on: EKVX
[3] = tested on: HCC 2998
[4] = tested on: Hs-578T
[5] = tested on: LOX IMVI
[6] = tested on: MCF7
[7] = tested on: MDA-MB-435
[8] = tested on: NCI-H226
[9] = tested on: NCI-H23
[10] = tested on: OVCAR-8
[11] = tested on: SF-539
[12] = tested on: SK-MEL-2
[13] = tested on: SN12C
[14] = tested on: SNB-19
[15] = tested on: SR
[16] = tested on: T47D
[17] = tested on: U-251
[18] = tested on: UACC-257
[19] = tested on: HOP-92

| Compound | GI50 [1] | GI50 [2] | GI50 [3] | GI50 [4] | GI50 [5] | GI50 [6] | GI50 [7] | GI50 [8] | GI50 [9] | GI50 [10] | GI50 [11] | GI50 [12] | GI50 [13] | GI50 [14] | GI50 [15] | GI50 [16] | GI50 [17] | GI50 [18] | GI50 [19] |
| --- | --- | --- | --- | --- | --- | --- | --- | --- | --- | --- | --- | --- | --- | --- | --- | --- | --- | --- | --- |
| C=CCN1C(=O)CS/C1=N\NC(=O)CSc1nc2ccccc2c(=O)n1CC | > 100 µM (inactive) | > 100 µM (inactive) | > 100 µM (inactive) | > 100 µM (inactive) | > 100 µM (inactive) | > 100 µM (inactive) | > 100 µM (inactive) | > 100 µM (inactive) | > 100 µM (inactive) | > 100 µM (inactive) | > 100 µM (inactive) | > 100 µM (inactive) | > 100 µM (inactive) | > 100 µM (inactive) | > 100 µM (inactive) | > 100 µM (inactive) | > 100 µM (inactive) | > 100 µM (inactive) | – |
| CCN(CC)CCOCC1CCCN2CCCCC12 (stereo unspecified) | > 100 µM (inactive) | > 100 µM (inactive) | > 100 µM (inactive) | > 100 µM (inactive) | > 100 µM (inactive) | > 100 µM (inactive) | > 100 µM (inactive) | > 100 µM (inactive) | > 100 µM (inactive) | > 100 µM (inactive) | > 100 µM (inactive) | > 100 µM (inactive) | > 100 µM (inactive) | > 100 µM (inactive) | – | > 100 µM (inactive) | > 100 µM (inactive) | > 100 µM (inactive) | > 100 µM (inactive) |
| O=C(C1OC1c1cccc([N+](=O)[O-])c1)C12CC3CC(CC(C3)C1)C2 (stereo unspecified) | 2.89 µM (inactive) | 13.2 µM (inactive) | 6.73 µM (inactive) | 3.66 µM (inactive) | 1.72 µM (inactive) | 2.86 µM (inactive) | 3.52 µM (inactive) | 10.5 µM (inactive) | 5.74 µM (inactive) | 2.25 µM (inactive) | 8.79 µM (inactive) | 14.3 µM (inactive) | 4.2 µM (inactive) | 8.13 µM (inactive) | – | 11.7 µM (inactive) | 2.88 µM (inactive) | 11.7 µM (inactive) | 10.9 µM (inactive) |
| C=CCNC(=S)N/C=C(\C(=O)OCC)C(=O)C(=O)OCC | > 100 µM (inactive) | > 100 µM (inactive) | > 100 µM (inactive) | > 100 µM (inactive) | > 100 µM (inactive) | > 100 µM (inactive) | > 100 µM (inactive) | > 100 µM (inactive) | > 100 µM (inactive) | > 100 µM (inactive) | > 100 µM (inactive) | > 100 µM (inactive) | > 100 µM (inactive) | > 100 µM (inactive) | > 100 µM (inactive) | > 100 µM (inactive) | > 100 µM (inactive) | > 100 µM (inactive) | – |
| CC(=O)O[C@H]1C[C@H]2[C@@H]([C@H](OC(C)=O)C[C@@H]3CC4(CC[C@@]32C)OOC2(CCCCC2)OO4)[C@@H]2CC[C@H]([C@H](C)CCC(N)=O)[C@@]12C | 1.28 µM (inactive) | 1.49 µM (inactive) | 3.63 µM (inactive) | 5.47 µM (inactive) | 1 µM (active) | 2.61 µM (inactive) | 1.65 µM (inactive) | 2.46 µM (inactive) | 1 µM (active) | 2.14 µM (inactive) | 3.13 µM (inactive) | 1.78 µM (inactive) | 2.14 µM (inactive) | 5.85 µM (inactive) | 0.0787 µM (active) | 1.63 µM (inactive) | 1.51 µM (inactive) | 5.62 µM (inactive) | – |
| COC(=O)[C@H](COC(=O)/C=C/c1ccc(OC(C)=O)c(OC(C)=O)c1)NC(=O)/C=C/c1ccc(OC(C)=O)c(OC(C)=O)c1 | 5.98 µM (inactive) | 15.5 µM (inactive) | 17.6 µM (inactive) | 21.7 µM (inactive) | 18.4 µM (inactive) | 38.4 µM (inactive) | 19.4 µM (inactive) | 29.2 µM (inactive) | 22.4 µM (inactive) | 27.7 µM (inactive) | 45.1 µM (inactive) | 18.5 µM (inactive) | 18.8 µM (inactive) | 15.8 µM (inactive) | – | 2.81 µM (inactive) | 29.1 µM (inactive) | 20.5 µM (inactive) | 22.2 µM (inactive) |
| C[C@]12CC[C@@H]3c4ccc(OS(N)(=O)=O)cc4CC[C@H]3[C@@H]1CCC2=O [EMATE] | 39 µM (inactive) | 5.07 µM (inactive) | 49.2 µM (inactive) | 10.5 µM (inactive) | 75.9 µM (inactive) | 36.5 µM (inactive) | 39.4 µM (inactive) | 49.3 µM (inactive) | 37.8 µM (inactive) | 53 µM (inactive) | 52.2 µM (inactive) | 37.5 µM (inactive) | 81.3 µM (inactive) | 73.3 µM (inactive) | – | 29 µM (inactive) | 46.2 µM (inactive) | 32.4 µM (inactive) | > 100 µM (inactive) |
